Legend:
[1] = Aqueous solubility (equilibration in de-ionised water, HPLC); type: physicochemical; settings: for Form retention of solids after solubility equilibration (XRPD): 24 hours in de-ionised water, solids dried at 50° C., re-analysed by XRPD; for solubility at 24 h: de-ionised water, water, thermodynamic from solid, 25° C.
Method: […] Solids were isolated by filtration to deliver clear liquors that were analyzed for API content by HPLC vs a known standard of free base (typical dilution of 50× using deionized water for salt candidates to deliver a working concentration in line with the standard at 0.5 mg/ml). The solids were dried at 50° C. and re-analysed by XRPD to confirm form retention—both mesylate and citrate retain form.

[2] = Solid form stability under extremes of humidity (XRPD post DVS/GVS); type: physicochemical; settings: 0% RH and 90% RH, XRPD vs input
Text: FIG. 1: XRPD patterns of citrate salt (Example 1), Ex-DVS examination at 0% RH, (top panel), 90% RH, (middle panel) and input (bottom panel).
FIG. 3: XRPD data for mesylate salt (Example 2) exposed to extremes of humidity post GVS cycle: input (bottom panel) output 0% (top panel) output 90% (middle panel).
X-Ray Powder Diffraction (XRPD)
X-Ray Powder Diffraction patterns were collected on a PANalytical diffractometer using Cu Kα radiation (45 kV, 40 mA), θ−θ goniometer, focusing mirror, divergence slit (½″), soller slits at both incident and divergent beam (4 mm) and a PIXcel detector. The software used for data collection was X'Pert Data Collector, version 2.2f and the data was presented using X'Pert Data Viewer, version 1.2d.
XRPD patterns were acquired under ambient conditions via a transmission foil sample stage (polyimide—Kapton, 12.7 μm thickness film) under ambient conditions using a PANalytical X'Pert PRO. The data collection range was 2.994-35°2θ with a continuous scan speed of 0.202004°s^−1.

SMILES	Form retention of solids after solubility equilibration (XRPD) [1]	solubility at 24 h [1] [mg/mL]	Crystalline form stability / hydrate formation under different extremes of humidity (XRPD) [2]
Cc1cc(-c2ccc(C(F)(F)F)cc2)nc([C@H]2CC[C@@]3(CCN(C)C3=O)N2)n1.O=C(O)CC(O)(CC(=O)O)C(=O)O [Example 1, (2R,5S)-7-Methyl-2-[4-methyl-6-[4-(trifluoromethyl)-phenyl]pyrimidin-2-yl]-1,7-diazaspiro[4.4]nonan-6-one citric acid (citrate) salt]	retain form	22	no tendency to form hydrates
CS(=O)(=O)O.Cc1cc(-c2ccc(C(F)(F)F)cc2)nc([C@H]2CC[C@@]3(CCN(C)C3=O)N2)n1 [Example 2, (2R,5S)-7-Methyl-2-[4-methyl-6-[4-(trifluoromethyl)-phenyl]pyrimidin-2-yl]-1,7-diazaspiro[4.4]nonan-6-one methanesulfonic acid (mesylate) salt]	retain form	65	no tendency to form hydrates
